Reference: patent publication EP4094756A1 (priority 2021, dated 2022)
Read-outs that look alike come from different tables or passages of the source.

Legend:
[1] = tested on: VSV-ΔG SARS CoV-2 S pseudovirus; type: cell-based
[2] = tested on: SARS CoV-2; type: cell-based
[3] = in vitro; conditions: monkey, vero cells
Experimental: (§1) Also, controls (solvent, Staurosporin (1 µM)) were prepared. Supernatants of cells were removed and substances applied for 8h, 24h and 48h at 37°C. • On day 2-4: fresh MTT [3-(4,5-Dimethylthiazol-2yl)-2,5-diphenyl-tetrazolium-bromid] was diluted in PBS to a final concentration of 5 mg/ml and 25 µl/well of MTT-solution were directly added to the wells and incubated for 1 h at 37°C. • MTT supernatant was removed and cells were lysed by 50 µl/well of 100 % DMSO and incubated for 1-5 minutes at room temperature. • Measurements were done at 562 nm in a photometer and % cell survival were calculated as = 100 × OD (sample) / OD (control).

[4] = human, in vivo, iv; cited from earlier work
[5] = MTT assay (cell survival); conditions: monkey, vero cells
Experimental: as §1

## CC(C)=CCC[C@]1(C)[C@@H](CC=C(C)C)C[C@]2(CC=C(C)C)C(=O)C(CC=C(C)C)=C(O)[C@@]1(C(=O)C(C)C)C2=O [Hyperforin, hyperforin, reference compound]
[1]
  impact on the VSV pseudovirus: did not have comparable impact

## Cc1cc(O)c2c(=O)c3c(O)cc(O)c4c5c(O)cc(O)c6c(=O)c7c(O)cc(C)c8c1c2c(c34)c(c78)c65 [Hypericin, hypericin]
[1]
  inhibition of the VSV pseudovirus: clearly inhibited
[2]
  viral load in diseased cells (PFU/ml): dramatically lowers the viral load
[3]
  MNTC: 1 µg/mL
[4]
  initial peak plasma levels: 29.5 ng/mL

## Oc1cc(O)c2c(c1)O[C@H](c1ccc(O)c(O)c1)[C@H](O)[C@H]2c1c(O)cc(O)c2c1O[C@H](c1ccc(O)c(O)c1)[C@H](O)[C@H]2c1c(O)cc(O)c2c1O[C@H](c1ccc(O)c(O)c1)[C@H](O)C2 [Procyanidin C1, reference compound]
[1]
  effect on the VSV pseudovirus: no significant inhibition
[5]
  MNTC: 50 µM

## Cc1cc(O)c2c(=O)c3c(O)cc(O)c4c5c(O)cc(O)c6c(=O)c7c(O)cc(CO)c8c1c2c(c34)c(c65)c78 [Pseudohypericin, pseudohypericin]
[1]; 1µg/ml
  inhibition of the VSV pseudovirus: clearly inhibited
[5]
  MNTC: 1 µg/mL
